Measured values: patent publication US20230276804A1, “A PESTICIDALLY ACTIVE MIXTURE COMPRISING PYRAZOLOPYRIDINE ANTHRANILAMIDE COMPOUND, OXIDES OR SALTS THEREOF” (priority 2020, published 2023)
Values joined by “and” are separate entries in the source; they are usually repeats but may differ in a detail not shown here. Equal values may be shown once.

Legend:
Type in all cases: in vivo
Spodoptera litura [1] = assay: Diet incorporation method against Spodoptera litura (Example B); settings: single compound, 1 ppm, 96 h
Protocol: The diet incorporation method was used, in which semi-synthetic diet was incorporated into the test solution consisting either of the single compound or respective compound combinations, when the temperature was approximately 50° C. in the bioassay containers, then stirred thoroughly for proper mixing and allowed to cool for 30 min. The solidified diet was cut into equal pieces, and then each piece was transferred into one cell of the bio-assay trays. A single starved third instar larva was released into each of these cells of the bio-assay trays and the tray was covered with a lid. The bio-assay trays were kept under laboratory conditions at a temperature of 25° C. and relative humidity of 70%. Observations on dead, moribund and live larvae were recorded 96 h after the release. Percent mortality was calculated by combining dead and moribund larvae and comparing the result with the one of the untreated control. The results are shown for the compound of formula (I-III) in Table B.

Plutella xylostella = assay: Leaf dip method (cabbage leaves) against Plutella xylostella (Example C); settings: single compound, 72 h
Protocol: The leaf dip method was used, wherein the required quantity of the compound or respective compound combinations were weighed and dissolved in a test solution prepared in tubes. The tubes were put on a vortex at 2000 rpm for 90 min for proper mixing and then the test solutions were diluted with 0.01% Triton-X to the desired test concentration. Cabbage leaves were dipped into the solution for 10 seconds, shade dried for 20 min and then transferred to single cells of bioassay trays. A single second instar larva was released into each cell and the tray was covered with a lid. The bio-assay trays were kept under laboratory conditions at a temperature of 25° C. and relative humidity of 70%. Observations on dead, moribund and live larvae were recorded 72 h after the release. Percent mortality was calculated by combining dead and moribund larvae and comparing the result with the one of the untreated control. The results are shown for compound of formula (I-III) in Table C.

Helicoverpa armigera = assay: Leaf dip method (tomato leaves) with Bacillus thuringiensis against Helicoverpa armigera (Example D); settings: single, 0.1 ppm, 72 h
Protocol: (§1) The leaf dip method was used, wherein the required quantity of the compounds were weighed and dissolved in a test solution prepared in tubes. The tubes were put on a vortex at 2000 rpm for 90 min for proper mixing and then, for the single compounds, diluted with a 0.01% Triton-X solution, for the combinations, diluted with a 0.01% Triton-X solution containing formulated Bt, to get the desired test concentrations. Tomato leaves were dipped in the solution for 10 seconds, shade dried for 20 min and then transferred to single cells of the bioassay trays. A single third instar larva was released into each cell and the tray was covered with a lid. The bio-assay trays were kept under laboratory conditions at a temperature of 25° C. and relative humidity of 70%. Observations on dead, moribund and live larvae were recorded at 72 h after the release. Percent mortality was calculated by combining dead and moribund larvae and comparing the result to the one of the untreated control. The results have been described for compound of formula (I-III) in Table D.

Spodoptera litura [2] = assay: Leaf dip method (tomato leaves) with Bacillus thuringiensis against Spodoptera litura (Example E); settings: single, 0.1 ppm, 72 h
Protocol: as §1, with “test concentration.” for “test concentrations.”, “the results” for “the result”, “Table E.” for “Table D.”

Alternaria solani = assay: Preventive glasshouse test against Alternaria solani in tomato (Example G); settings: single compound
Protocol: The single compounds or respective compound combinations were dissolved in 2% dimethyl sulfoxide/acetone and then mixed with water containing emulsifier to a calibrated spray volume of 50 mL. The test solutions were poured into spray bottles for further applications.
(§2) To test the preventive activity, healthy young tomato plants, raised in the greenhouse, were sprayed with the active compound preparation at the stated application rates inside the spray cabinets using hollow cone nozzles. One day after treatment, the plants were inoculated with a spore suspension containing 0.24×10^6 Alternaria solani inoculum and 2% Malt. The inoculated plants were then kept in a greenhouse chamber at a temperature of 22-24° C. and 90-95% relative humidity for disease expression.
A visual assessment of the performance of the single compounds or compound combinations was carried out by rating the disease severity (0-100% scale) on treated plants 3, 7, 10 and 15 days after application. Efficacy (% control) of the single compounds and mixtures was calculated by comparing the disease rating in the treatment with the one of the untreated control. The compounds were also assessed for their plant compatibility by recording symptoms like necrosis, chlorosis and stunting. The results have been described for the compound of formula (I-III) in Table G.

Pyricularia oryzae = settings: single compound, 100 ppm, preventive, rice
Erysiphe cichoracearum = assay: Preventive glasshouse test against Erysiphe cichoracearum in cucumber (Example K); settings: single compound
Protocol: The single compounds or the respective compound combinations were dissolved in 2% dimethyl sulfoxide/acetone and then mixed with water containing emulsifier to a calibrated spray volume of 50 mL. The test solutions were poured into spray bottles for further applications.
as §2, with “activity of compounds,” for “activity,”, “cucumber” for “tomato”, “conidial” for “spore”, “2×10^5 Erysiphe cichoracearum inoculum.” for “0.24×10^6 Alternaria solani inoculum and 2% Malt.”, “50-60%” for “90-95%”
A visual assessment of the performance of the compounds and the respective compound combinations was carried out by rating the disease severity (0-100% scale) on treated plants 3, 7, 10 and 15 days after application. Efficacy (% control) of the single compounds or compound combinations was calculated by comparing the disease rating in the treatment with the one of the untreated control. The compounds were also assessed for their plant compatibility by recording symptoms like necrosis, chlorosis and stunting. The results have been described for the compound of formula (I-III) in Table K.

Substance: 6-(3-bromo-1-(3-chloropyridin-2-yl)-1H-pyrazole-5-carboxamido)-N-isopropyl-5-methylpyrazolo[1,5-a]pyridine-7-carboxamide [Compound (I-III)]
- Observed Efficacy (%) (Spodoptera litura [1]): 12.5% and 25%
- Observed Efficacy (%) (Plutella xylostella; 0.05 ppm): 12.5%
- Observed Efficacy (%) (Plutella xylostella; 0.1 ppm): 12.5%
- Observed Efficacy (%) (Plutella xylostella; 0.5 ppm): 25%
- Observed Efficacy (%) (Helicoverpa armigera): 12.5%
- Observed Efficacy (%) (Spodoptera litura [2]): 0%
- Observed Efficacy (%) (Alternaria solani; 100 ppm): 30%
- Observed Efficacy (%) (Alternaria solani; 500 ppm): 32%
- Observed Efficacy (%) (Pyricularia oryzae): 15%
- Observed Efficacy (%) (Erysiphe cichoracearum; Conc. 100 ppm): 17%
- Observed Efficacy (%) (Erysiphe cichoracearum; Conc. 500 ppm): 17% and 19% and 28%
